Measured values from ChEMBL document CHEMBL3734679, “Discovery of Azaindole Ureas as a Novel Class of Bacterial Gyrase B Inhibitors” (J Med Chem, 2015).
pIC50: −log10 of the molar value. Converted amounts (≈) assume the structure as drawn.

Tests used:
DNA gyrase subunit B = DNA gyrase subunit B (Staphylococcus aureus, UniProt P0A0K8); assay: Inhibition of Staphylococcus aureus DNA GyraseB ATPase activity using linear pBR322 DNA as substrate incubated for 30 mins by fluorescence polarization analysis
Staphylococcus aureus [1] = assay: Antibacterial activity against methicillin-susceptible Staphylococcus aureus 42 after 18 to 20 hrs by broth microdilution assay; format: functional
Staphylococcus aureus [2] = assay: Antibacterial activity against methicillin-resistant Staphylococcus aureus 1118 after 18 to 20 hrs by broth microdilution assay; format: functional
Staphylococcus aureus [3] = assay: Antibacterial activity against ciprofloxacin-resistant Staphylococcus aureus 1721 after 18 to 20 hrs by broth microdilution assay; format: functional
Streptococcus pneumoniae = assay: Antibacterial activity against Streptococcus pneumoniae after 18 to 20 hrs by broth microdilution assay; format: functional
Enterococcus faecium = assay: Antibacterial activity against Enterococcus faecium after 18 to 20 hrs by broth microdilution assay; format: functional
Enterococcus faecalis = assay: Antibacterial activity against Enterococcus faecalis after 18 to 20 hrs by broth microdilution assay; format: functional

DNA gyrase subunit B, sequence (P0A0K8 whole entry): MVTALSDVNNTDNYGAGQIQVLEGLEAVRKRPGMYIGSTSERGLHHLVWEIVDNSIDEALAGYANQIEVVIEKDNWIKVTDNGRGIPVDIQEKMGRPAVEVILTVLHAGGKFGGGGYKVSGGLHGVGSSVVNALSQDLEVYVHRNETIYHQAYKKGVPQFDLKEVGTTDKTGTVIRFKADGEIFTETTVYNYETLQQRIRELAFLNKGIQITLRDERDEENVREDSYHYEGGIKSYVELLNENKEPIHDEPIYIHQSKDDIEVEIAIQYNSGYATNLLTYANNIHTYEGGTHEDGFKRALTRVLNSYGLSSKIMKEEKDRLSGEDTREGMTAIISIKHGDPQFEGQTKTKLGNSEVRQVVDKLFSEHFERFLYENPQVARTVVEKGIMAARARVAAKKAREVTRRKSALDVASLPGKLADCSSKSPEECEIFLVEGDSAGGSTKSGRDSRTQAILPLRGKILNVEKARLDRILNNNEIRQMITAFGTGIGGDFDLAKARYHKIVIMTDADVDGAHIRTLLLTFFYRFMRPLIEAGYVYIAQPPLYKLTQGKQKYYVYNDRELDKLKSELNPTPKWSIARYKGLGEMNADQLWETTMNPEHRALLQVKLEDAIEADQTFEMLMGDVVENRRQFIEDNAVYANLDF

Compound | pIC50 (DNA gyrase subunit B) | MIC (Staphylococcus aureus [1]) [µg/mL] | MIC (Staphylococcus aureus [2]) [µg/mL] | MIC (Staphylococcus aureus [3]) [µg/mL] | MIC (Streptococcus pneumoniae) [µg/mL] | MIC (Enterococcus faecium) [µg/mL] | MIC (Enterococcus faecalis) [µg/mL]
CCNC(=O)Nc1cn(-c2ncc(Cl)cn2)c2cc(-c3cccnc3)cnc12 | 7.04 | 2 (≈ 5.08 µM) | 4 (≈ 10.2 µM) | 4 (≈ 10.2 µM) | 2 (≈ 5.08 µM) | 2 (≈ 5.08 µM) | 0.5 (≈ 1.27 µM)
CCNC(=O)Nc1cn(-c2ncccc2C)c2cc(-c3cccnc3)cnc12 | 5.72 | > 32 | > 32 | > 32 | > 32 | > 32 | > 32
CCNC(=O)Nc1cn(C2CCN(C)C2=O)c2cc(-c3cccnc3)cnc12 (configuration not stated) | 5.28 |  |  |  |  |  | 
CCNC(=O)Nc1cn(C2CCN(C)CC2)c2cc(-c3cccnc3)cnc12 | 5.19 |  |  |  |  |  | 
C=CCn1cc(NC(=O)NCC)c2ncc(-c3cccnc3)cc21 | 6.37 |  |  |  |  |  | 
CCNC(=O)Nc1cn(CC(O)CO)c2cc(-c3cccnc3)cnc12 (configuration not stated) | 5.91 |  |  |  |  |  | 
CCNC(=O)Nc1cn(C)c2cc(-c3cccnc3)cnc12 | 5.74 |  |  |  |  |  | 
CCNC(=O)Nc1cn(-c2ncc(Cl)cn2)c2cc(-c3cccnc3F)cnc12 | 5.22 | > 32 | > 32 | > 32 | > 32 | > 32 | > 32
CCNC(=O)Nc1cn(-c2ncc(C)c(CCCC(=O)O)n2)c2cc(-c3cccnc3)cnc12 | 7.82 | 8 (≈ 17.4 µM) | 8 (≈ 17.4 µM) | 8 (≈ 17.4 µM) | 0.5 (≈ 1.09 µM) | 8 (≈ 17.4 µM) | 
CCNC(=O)Nc1cn(-c2ncc(F)cn2)c2cc(-c3cccnc3)cnc12 | 6.90 | 32 (≈ 84.8 µM) | 32 (≈ 84.8 µM) | > 32 | 32 (≈ 84.8 µM) | 32 (≈ 84.8 µM) | 32 (≈ 84.8 µM)
CCNC(=O)Nc1cn(-c2ncc(Br)cn2)c2cc(-c3cccnc3)cnc12 | 6.89 | 1 (≈ 2.28 µM) | 2 (≈ 4.56 µM) | 2 (≈ 4.56 µM) | 1 (≈ 2.28 µM) | 2 (≈ 4.56 µM) | 0.25 (≈ 0.57 µM)
C=CC(=O)n1cc(NC(=O)NCC)c2ncc(-c3cccnc3)cc21 | 6.55 |  |  |  |  |  | 
CCNC(=O)Nc1cn(C2CCCCC2)c2cc(-c3cccnc3)cnc12 | 6.46 |  |  |  |  |  | 
CCNC(=O)Nc1cn(-c2ncc(Br)cn2)c2cc(-c3ccn(C)c(=O)c3)cnc12 | 7.03 | 1 (≈ 2.14 µM) | 1 (≈ 2.14 µM) | 1 (≈ 2.14 µM) | 1 (≈ 2.14 µM) | 1 (≈ 2.14 µM) | 
CCNC(=O)Nc1cn(-c2ncc(C#N)cn2)c2cc(-c3cccnc3)cnc12 | 7.74 | > 32 | > 32 | > 32 | > 32 | > 32 | > 32
CCNC(=O)Nc1cn(-c2ncccn2)c2cc(-n3cnc(C(=O)NC4CC4)c3)cnc12 | 8.00 | 4 (≈ 9.27 µM) | 4 (≈ 9.27 µM) | 4 (≈ 9.27 µM) | 2 (≈ 4.64 µM) | 8 (≈ 18.5 µM) | 
CCNC(=O)Nc1nc(CO)c(-c2ccc[nH]2)s1 | 5.60 | 128 (≈ 481 µM) |  |  | 16 (≈ 60.1 µM) |  | 
CCNC(=O)Nc1cn(-c2ncc(CC)cn2)c2cc(-c3ccn(C)c(=O)c3)cnc12 | 7.15 | 1 (≈ 2.4 µM) | 1 (≈ 2.4 µM) | 1 (≈ 2.4 µM) | 0.25 (≈ 0.599 µM) | 0.25 (≈ 0.599 µM) | 
CCNC(=O)Nc1cn(CCOC)c2cc(-c3cccnc3)cnc12 | 5.62 |  |  |  |  |  | 
CCNC(=O)Nc1cn(-c2ncccn2)c2cc(-c3ccn(C)c(=O)c3)cnc12 | 7.92 | 2 (≈ 5.14 µM) | 2 (≈ 5.14 µM) | 4 (≈ 10.3 µM) | 2 (≈ 5.14 µM) | 4 (≈ 10.3 µM) | 

Compound | pIC50 (DNA gyrase subunit B) | MIC (Staphylococcus aureus [1]) [µg/mL] | MIC (Staphylococcus aureus [2]) [µg/mL] | MIC (Staphylococcus aureus [3]) [µg/mL] | MIC (Streptococcus pneumoniae) [µg/mL] | MIC (Enterococcus faecium) [µg/mL] | MIC (Enterococcus faecalis) [µg/mL]
CCNC(=O)Nc1cn(-c2nccc(C)n2)c2cc(-c3cccnc3)cnc12 | 6.85 | > 32 | > 32 | > 32 | 4 (≈ 10.7 µM) | 2 (≈ 5.36 µM) | 1 (≈ 2.68 µM)
CCNC(=O)Nc1cn(-c2ncccn2)c2cc(-c3cccnc3)cnc12 | > 7.10 | 8 (≈ 22.3 µM) | 8 (≈ 22.3 µM) | 16 (≈ 44.5 µM) | 4 (≈ 11.1 µM) | 8 (≈ 22.3 µM) | 2 (≈ 5.56 µM)
CCNC(=O)Nc1c[nH]c2cc(-c3cccnc3)cnc12 | 5.19 | > 32 | > 32 | > 32 | > 32 | > 32 | > 32
CCNC(=O)Nc1cn(-c2ncc(Cl)cn2)c2cc(-c3ccn(C)c(=O)c3)cnc12 | 6.58 | 1 (≈ 2.36 µM) | 1 (≈ 2.36 µM) | 2 (≈ 4.72 µM) | 1 (≈ 2.36 µM) | 2 (≈ 4.72 µM) | 
CCNC(=O)Nc1cn(-c2ncc(CC)cn2)c2cc(-c3cccnc3)cnc12 | 7.34 | 16 (≈ 41.3 µM) | 16 (≈ 41.3 µM) | 16 (≈ 41.3 µM) | 16 (≈ 41.3 µM) | 16 (≈ 41.3 µM) | 8 (≈ 20.6 µM)
CCNC(=O)Nc1nc(/C=C/c2cccnc2)c(-c2ccc[nH]2)s1 | 5.24 |  |  |  |  |  | 
CCNC(=O)Nc1cn(-c2ncc(C)cn2)c2cc(-c3ccn(C)c(=O)c3)cnc12 | 7.89 | > 32 | > 32 | > 32 | 4 (≈ 9.91 µM) | > 32 | 0.5 (≈ 1.24 µM)
CCNC(=O)Nc1cn(-c2ncc(C)cn2)c2cc(-c3cccnc3)cnc12 | 7.19 | 4 (≈ 10.7 µM) | 4 (≈ 10.7 µM) | 4 (≈ 10.7 µM) | 4 (≈ 10.7 µM) | 4 (≈ 10.7 µM) | 1 (≈ 2.68 µM)
CCNC(=O)Nc1cn(-c2ccccn2)c2cc(-c3cccnc3)cnc12 | 6.85 | 16 (≈ 44.6 µM) | 16 (≈ 44.6 µM) |  | 8 (≈ 22.3 µM) | 8 (≈ 22.3 µM) | 8 (≈ 22.3 µM)
CCNC(=O)Nc1cn(-c2ncc(C(F)(F)F)cn2)c2cc(-c3cccnc3)cnc12 | < 4.00 | > 32 | > 32 | > 32 | > 32 | > 32 | > 32
CCNC(=O)Nc1cn(C(=O)c2ccccn2)c2cc(-c3cccnc3)cnc12 | 5.95 |  |  |  |  |  | 
CCNC(=O)Nc1cn(-c2ncc(OC)cn2)c2cc(-c3cccnc3)cnc12 | 6.84 | 4 (≈ 10.3 µM) | 8 (≈ 20.5 µM) | 8 (≈ 20.5 µM) | 4 (≈ 10.3 µM) | 8 (≈ 20.5 µM) | 1 (≈ 2.57 µM)
CCNC(=O)Nc1cn(-c2ncc(C)c(CCC(=O)O)n2)c2cc(-c3cccnc3)cnc12 | 7.32 | > 32 | > 32 | > 32 | 1 (≈ 2.24 µM) | > 32 | 
CCNC(=O)Nc1cn(-c2ncc(Br)cn2)c2cc(-c3ccn(CCO)c(=O)c3)cnc12 | 8.10 | 8 (≈ 16.1 µM) | 8 (≈ 16.1 µM) | 8 (≈ 16.1 µM) | 8 (≈ 16.1 µM) | 8 (≈ 16.1 µM) | 
CCNC(=O)Nc1cn(Cc2ccccc2)c2cc(-c3cccnc3)cnc12 | 5.49 |  |  |  |  |  | 
CCNC(=O)Nc1cn(-c2ncc(Cl)cn2)c2cc(-c3cnc(C#N)nc3)cnc12 | 7.60 | > 32 | > 32 | > 32 | > 32 | > 32 | > 32
CCNC(=O)Nc1cn(-c2nccc(CCO)n2)c2cc(-c3cccnc3)cnc12 | 8.05 | 32 (≈ 79.3 µM) | 32 (≈ 79.3 µM) | 32 (≈ 79.3 µM) | 8 (≈ 19.8 µM) | 16 (≈ 39.7 µM) | 
CCNC(=O)Nc1cn(C2C=CCCC2)c2cc(-c3cccnc3)cnc12 (configuration not stated) | 6.62 |  |  |  |  |  | 
CCNC(=O)Nc1cn(-c2nccc(CCCO)n2)c2cc(-c3cccnc3)cnc12 | 7.38 | 32 (≈ 76.7 µM) | 32 (≈ 76.7 µM) | 32 (≈ 76.7 µM) | 4 (≈ 9.58 µM) | 4 (≈ 9.58 µM) | 0.5 (≈ 1.2 µM)
